Reference: patent US20240365781A1, “SYNERGISTICALLY EFFECTIVE HERBICIDE COMPOSITION COMPRISING PELARGONIC ACID AND FLAZASULFURON” (Belchim Crop Protection NV, priority 2017, published 2024)

Assays:
Format in all cases: in vivo
Chenopodium album [1] = experiment: post-emergence field trial under rows of apple trees, 150-200 L water/ha (Examples 10-12); settings: 20 g of active compound/ha
Method: (§1) Herbicidal activity was determined by performing a post-emergence test. […] The corresponding mixture was in the form of a spray solution. Besides, spray solutions of individual compositions comprising pelargonic acid or flazasulfuron were used.
(§2) The spray solution was applied on plants of unwanted vegetation present on fields where perennial crops were grown.
(§3) After 5 to 88 days after application of the spray solution, the degree of damage to the unwanted vegetation is rated in % of plants of unwanted vegetation that were killed. Tests were performed on test fields (field trials).

Setaria viridis = experiment: as above; settings: 20 g of active compound/ha
Method: as §1, §2, §3

Trifolium repens = experiment: as above; settings: 20 g of active compound/ha
Method: as §1, §2, §3

Lolium multiflorum = experiment: as above; settings: 20 g of active compound/ha
Method: as §1, §2, §3

Senecio vulgaris = experiment: as above; settings: 20 g of active compound/ha
Method: as §1, §2, §3

Chenopodium album [2] = experiment: post-emergence test, field trial (Examples 1-5); settings: FT
Excerpt: (§4) The expected activity of a given combination of two or three herbicides can be calculated as follows according to a calculation method by Colby (cf. COLBY, S. R.: “Calculating synergistic and antagonistic responses of herbicide combinations”, • Weeds 15, pages 20-22, 1967): • If X=% damage by herbicide (A) at an application rate of m g/ha, • Y=% damage by herbicide (B) at an application rate of n g/ha, • E=the expected damage by herbicides (A) and (B) at application rates of m and n […] and, • then for a combination:
(§5) Individual compositions comprising pelargonic acid or flazasulfuron are compared with a herbicide composition according to the invention comprising pelargonic acid and flazasulfuron.
(§6) Herbicidal activity was determined by performing a post-emergence test. […] The corresponding mixture was in the form of a spray liquor. Besides, spray liquors of individual compositions comprising pelargonic acid or flazasulfuron were used.
(§7) Tests were performed on test fields (field trials) or in pots (pot trials).

Echinochloa crusgalli = experiment: post-emergence test, field trial (Examples 1-5); settings: FT
Excerpt: as §4, §5, §6, §7

Lolium sp. = experiment: post-emergence test, field trial (Examples 1-5); settings: 7 d, FT; pelargonic acid 5440 g/ha, flazasulfuron 50 g/ha; 8 L/ha
Excerpt: as §4, §5, §6, §7

Plantago major = experiment: post-emergence test, field trial (Examples 1-5); settings: FT
Excerpt: as §4, §5, §6, §7

Anagallis arvensis = experiment: post-emergence test, field trial (Examples 1-5); settings: 3 d, FT; pelargonic acid 5440 g/ha, flazasulfuron 50 g/ha; 8 L/ha
Excerpt: as §4, §5, §6, §7

[3] = 3 d, pelargonic acid 10880 g/ha, flazasulfuron 25 g/ha, 16 L/ha
[4] = 3 d, pelargonic acid 10880 g/ha, flazasulfuron 50 g/ha, 16 L/ha
[5] = 3 d, pelargonic acid 21760 g/ha, flazasulfuron 25 g/ha, 32 L/ha
[6] = 3 d, pelargonic acid 21760 g/ha, flazasulfuron 50 g/ha, 32 L/ha
[7] = 7 d, pelargonic acid 10880 g/ha, flazasulfuron 25 g/ha, 16 L/ha
[8] = 7 d, pelargonic acid 10880 g/ha, flazasulfuron 50 g/ha, 16 L/ha
[9] = 7 d, pelargonic acid 21760 g/ha, flazasulfuron 25 g/ha, 32 L/ha
[10] = 7 d, pelargonic acid 21760 g/ha, flazasulfuron 50 g/ha, 32 L/ha
[11] = 13 d, pelargonic acid 10880 g/ha, flazasulfuron 25 g/ha, 16 L/ha
[12] = 13 d, pelargonic acid 10880 g/ha, flazasulfuron 50 g/ha, 16 L/ha
[13] = 13 d, pelargonic acid 21760 g/ha, flazasulfuron 25 g/ha, 32 L/ha
[14] = 13 d, pelargonic acid 21760 g/ha, flazasulfuron 50 g/ha, 32 L/ha
[15] = 23 d, pelargonic acid 10880 g/ha, flazasulfuron 25 g/ha, 16 L/ha
[16] = 23 d, pelargonic acid 21760 g/ha, flazasulfuron 25 g/ha, 32 L/ha
[17] = 23 d, pelargonic acid 21760 g/ha, flazasulfuron 50 g/ha, 32 L/ha
[18] = 30 d, pelargonic acid 10880 g/ha, flazasulfuron 25 g/ha, 16 L/ha
[19] = 30 d, pelargonic acid 10880 g/ha, flazasulfuron 50 g/ha, 16 L/ha
[20] = 30 d, pelargonic acid 21760 g/ha, flazasulfuron 25 g/ha, 32 L/ha
[21] = 30 d, pelargonic acid 21760 g/ha, flazasulfuron 50 g/ha, 32 L/ha
[22] = 38 d, pelargonic acid 10880 g/ha, flazasulfuron 25 g/ha, 16 L/ha
[23] = 38 d, pelargonic acid 10880 g/ha, flazasulfuron 50 g/ha, 16 L/ha
[24] = 38 d, pelargonic acid 21760 g/ha, flazasulfuron 25 g/ha, 32 L/ha
[25] = 38 d, pelargonic acid 21760 g/ha, flazasulfuron 50 g/ha, 32 L/ha

## COc1cc(OC)nc(NC(=O)NS(=O)(=O)c2ncccc2C(F)(F)F)n1 [Flazasulfuron, 1-(4,6-dimethoxypyrimidin-2-yl)-3-(3-trifluoromethyl-2-pyridylsulfonyl)urea]
Chenopodium album [1]; Chenopodium album/6 d
  herbicidal effect (%): 13%
Chenopodium album [1]; Chenopodium album/16 d
  herbicidal effect (%): 59%
Chenopodium album [1]; Chenopodium album/30 d
  herbicidal effect (%): 63%
Chenopodium album [1]; Chenopodium album/57 d
  herbicidal effect (%): 58%
Chenopodium album [1]; Chenopodium album/78 d
  herbicidal effect (%): 64%
Setaria viridis; Setaria viridis/6 d
  herbicidal effect (%): 10%
Setaria viridis; Setaria viridis/16 d
  herbicidal effect (%): 50%
Setaria viridis; Setaria viridis/30 d
  herbicidal effect (%): 55%
Setaria viridis; Setaria viridis/57 d
  herbicidal effect (%): 53%
Setaria viridis; Setaria viridis/78 d
  herbicidal effect (%): 43%
Trifolium repens; Trifolium repens/7 d
  herbicidal effect (%): 20%
Trifolium repens; Trifolium repens/16 d
  herbicidal effect (%): 40%
Trifolium repens; Trifolium repens/26 d
  herbicidal effect (%): 63%
Trifolium repens; Trifolium repens/59 d
  herbicidal effect (%): 68%
Lolium multiflorum; Lolium multiflorum/5 d
  herbicidal effect (%): 0%
Lolium multiflorum; Lolium multiflorum/18 d
  herbicidal effect (%): 79%
Lolium multiflorum; Lolium multiflorum/32 d
  herbicidal effect (%): 87%
Lolium multiflorum; Lolium multiflorum/61 d
  herbicidal effect (%): 91%
Lolium multiflorum; Lolium multiflorum/88 d
  herbicidal effect (%): 89%
Senecio vulgaris; Senecio vulgaris/6 d
  herbicidal effect (%): 4%
Senecio vulgaris; Senecio vulgaris/28 d
  herbicidal effect (%): 13%
Senecio vulgaris; Senecio vulgaris/58 d
  herbicidal effect (%): 18%
Chenopodium album [2]; [3]
  herbicidal effect: 10%
Chenopodium album [2]; [4]
  herbicidal effect: 15%
Chenopodium album [2]; [5]
  herbicidal effect: 10%
Chenopodium album [2]; [6]
  herbicidal effect: 15%
Chenopodium album [2]; [7]
  herbicidal effect: 40%
Chenopodium album [2]; [8]
  herbicidal effect: 0%
Chenopodium album [2]; [9]
  herbicidal effect: 40%
Chenopodium album [2]; [10]
  herbicidal effect: 0%
Chenopodium album [2]; [11]
  herbicidal effect: 15%
Chenopodium album [2]; [12]
  herbicidal effect: 0%
Chenopodium album [2]; [13]
  herbicidal effect: 15%
Chenopodium album [2]; [14]
  herbicidal effect: 0%
Chenopodium album [2]; [15]
  herbicidal effect: 20%
Chenopodium album [2]; [16]
  herbicidal effect: 20%
Chenopodium album [2]; [17]
  herbicidal effect: 0%
Chenopodium album [2]; [18]
  herbicidal effect: 20%
Chenopodium album [2]; [19]
  herbicidal effect: 0%
Chenopodium album [2]; [20]
  herbicidal effect: 20%
Chenopodium album [2]; [21]
  herbicidal effect: 0%
Chenopodium album [2]; [22]
  herbicidal effect: 20%
Chenopodium album [2]; [23]
  herbicidal effect: 0%
Chenopodium album [2]; [24]
  herbicidal effect: 20%
Chenopodium album [2]; [25]
  herbicidal effect: 0%
Echinochloa crusgalli; 3 d, pelargonic acid 5440 g/ha, flazasulfuron 50 g/ha, 8 L/ha
  herbicidal effect: 2.5%
Echinochloa crusgalli; [3]
  herbicidal effect: 0%
Echinochloa crusgalli; [5]
  herbicidal effect: 0%
Echinochloa crusgalli; 7 d, pelargonic acid 5440 g/ha, flazasulfuron 50 g/ha, 8 L/ha
  herbicidal effect: 13.3%
Echinochloa crusgalli; [7]
  herbicidal effect: 40%
Echinochloa crusgalli; [8]
  herbicidal effect: 20%
Echinochloa crusgalli; [10]
  herbicidal effect: 20%
Echinochloa crusgalli; 12 d, pelargonic acid 5440 g/ha, flazasulfuron 50 g/ha, 8 L/ha
  herbicidal effect: 37.3%
Echinochloa crusgalli; [11]
  herbicidal effect: 40%
Echinochloa crusgalli; [12]
  herbicidal effect: 30%
Echinochloa crusgalli; [13]
  herbicidal effect: 40%
Echinochloa crusgalli; [14]
  herbicidal effect: 30%
Echinochloa crusgalli; [15]
  herbicidal effect: 40%
Echinochloa crusgalli; 23 d, pelargonic acid 10880 g/ha, flazasulfuron 50 g/ha, 16 L/ha
  herbicidal effect: 0%
Echinochloa crusgalli; [16]
  herbicidal effect: 40%
Echinochloa crusgalli; [17]
  herbicidal effect: 0%
Echinochloa crusgalli; 26 d, pelargonic acid 5440 g/ha, flazasulfuron 50 g/ha, 8 L/ha
  herbicidal effect: 99%
Echinochloa crusgalli; [18]
  herbicidal effect: 90%
Echinochloa crusgalli; [20]
  herbicidal effect: 90%
Echinochloa crusgalli; [22]
  herbicidal effect: 90%
Echinochloa crusgalli; [24]
  herbicidal effect: 90%
Echinochloa crusgalli; 72 d, pelargonic acid 5440 g/ha, flazasulfuron 50 g/ha, 8 L/ha
  herbicidal effect: 96.3%
Lolium sp.
  herbicidal effect: 2.5%
Plantago major; [3]
  herbicidal effect: 0%
Plantago major; [4]
  herbicidal effect: 10%
Plantago major; [6]
  herbicidal effect: 10%
Plantago major; [7]
  herbicidal effect: 25%
Plantago major; [8]
  herbicidal effect: 0%
Plantago major; [9]
  herbicidal effect: 25%
Plantago major; [10]
  herbicidal effect: 0%
Plantago major; [11]
  herbicidal effect: 10%
Plantago major; [12]
  herbicidal effect: 20%
Plantago major; [13]
  herbicidal effect: 10%
Plantago major; [14]
  herbicidal effect: 20%
Plantago major; [16]
  herbicidal effect: 10%
Plantago major; [17]
  herbicidal effect: 0%
Plantago major; [18]
  herbicidal effect: 35%
Plantago major; [19]
  herbicidal effect: 0%
Plantago major; [20]
  herbicidal effect: 35%
Plantago major; [21]
  herbicidal effect: 0%
Plantago major; [22]
  herbicidal effect: 10%
Plantago major; [23]
  herbicidal effect: 10%
Plantago major; [24]
  herbicidal effect: 10%
Plantago major; [25]
  herbicidal effect: 10%
Anagallis arvensis
  herbicidal effect: 1.3%
